Experimental data reported in the NIST ThermoML archive (doi:10.1016/j.fluid.2014.05.023).
Several values for one entry are separate records, joined by “and”; a condition that tells them apart may be missing. Equal values may be shown once. Numbers after ± are expanded uncertainties.

Experiment: activity coefficient (dimensionless); of the first substance listed, at infinite dilution; xn = mol fraction of the nth substance listed
Settings: 101 kPa, Liquid, Chromatography, x1 = 0

Structure (SMILES)	activity coefficient (273.35 K)	activity coefficient (283.15 K)	activity coefficient (293.15 K)	activity coefficient (298.15 K)	activity coefficient (303.15 K)	activity coefficient (313.15 K)	activity coefficient (323.15 K)	activity coefficient (333.15 K)	activity coefficient (341.15 K)	activity coefficient (351.15 K)	activity coefficient (361.25 K)
CCCCOC(C)=O [butyl ethanoate] + O	613 ± 42	799 ± 55	942 ± 65	1040 ± 72	1080 ± 75	1140 ± 79	1160 ± 80	1140 ± 78	–	–	–
CCCC(=O)OCC [ethyl butanoate] + O	–	–	993 ± 68	–	1090 ± 75	1150 ± 79	1180 ± 81	1180 ± 81	1110 ± 120	1030 ± 110	–
CCOC(C)=O [ethyl acetate] + O	44.5 ± 3	54.9 ± 3.8	64.8 and 68	69.2 ± 4.7	73.6 ± 5	80.1 ± 5.5	–	–	–	–	–
CCCOC(C)=O [propyl ethanoate] + O	172 ± 12	217 ± 15	274 and 257	261 and 270	281 ± 19	302 ± 21	319 ± 22	321 ± 22	–	–	–
CCOC(=O)CC [ethyl propanoate] + O	–	–	252 ± 17	–	291 ± 20	312 ± 21	329 ± 23	343 ± 24	332 and 328	366 and 321	283 ± 57
